These are literature values, as cited in patent US9662322B2 (TEVA PHARMACEUTICAL INDUSTRIES, LTD., priority 2014, dated 2017).

The conditions of this data set: cited from earlier work.

As for `CCN(C(=O)c1c(O)c2c(Cl)cccc2n(C)c1=O)c1ccccc1` [Laquinimod sodium], the Oral bioavailability result is listed as “high”.
